Measured values: patent US20250082610A1, “COMPOSITION, METHOD FOR MICROORGANISM GROWTH SUPPRESSION IN COMPOSITION FOR ORAL USE, AND AGENT FOR POTENTIATION OF MICROORGANISM-GROWTH-SUPPRESSING EFFECT OF QUERCETIN OR GLYCOSIDE THEREOF” (SUNTORY HOLDINGS LIMITED, priority 2022, published 2025)

What was measured:
[1] = test system: Escherichia coli NBRC 3972; experiment: Sterilizing (microorganism growth inhibiting) effect, viable bacterial count; format: cell-based; settings: one hour after inoculation, room temperature, phosphate-buffered saline, vs control; FIG. 1, result in words
Method: Escherichia coli (Escherichia coli NBRC 3972) was used as a test bacterium. Escherichia coli was inoculated onto a standard agar medium and cultured at 30° C. to 35° C. for 24 hours. After culturing, the bacterial count was adjusted to […] using saline, whereby a test bacterial solution was obtained. Phosphate-buffered saline and ergothioneine were mixed to prepare a test sample 1 (ergothioneine concentration: 100 ppm (0.01 wt %)). Phosphate-buffered saline and isoquercitrin were mixed to prepare a test sample 2 (isoquercitrin concentration: 100 ppm (0.01 wt %)). Phosphate-buffered saline, ergothioneine, and isoquercitrin were mixed to prepare a test sample 3 (ergothioneine concentration: 2.5 ppm (0.00025 wt %), isoquercitrin concentration: 100 ppm (0.01 wt %)). Phosphate-buffered saline, ergothioneine, and isoquercitrin were mixed to prepare a test sample 4 (ergothioneine concentration: 100 ppm (0.01 wt %), isoquercitrin concentration: 100 ppm (0.01 wt %)). Phosphate-buffered saline was used as control. A test sample (5 mL) was inoculated with a 0.05 mL test bacterial solution and left standing at room temperature. […] After culturing, the number of colonies formed was counted, and the viable bacterial count was calculated (n=3). The sterilizing effect (%) was determined from the viable bacterial count (average of n=3) using the following formula. […]

[2] = test system: human β-defensin-1 (hBD-1); settings: human immortalized keratinocyte cells (HaCaT cells); Patent Literature 1; cited from earlier work
[3] = test system: human β-defensin-3 (hBD-3); settings: human immortalized keratinocyte cells (HaCaT cells); Patent Literature 1; cited from earlier work
[4] = test system: Escherichia coli; settings: Non-Patent Literature 1; cited from earlier work
[5] = test system: Staphylococcus aureus; settings: Non-Patent Literature 1; cited from earlier work

Structure (SMILES)	Sterilizing effect on Escherichia coli [1]	expression level of mRNA in hBD-1 [2]	expression level of mRNA in hBD-3 [3]	inhibition of growth of Escherichia coli [4]	inhibition of growth of Staphylococcus aureus [5]
C[N+](C)(C)[C@@H](Cc1c[nH]c(=S)[nH]1)C(=O)[O-] [L-ergothioneine]	no sterilizing effect	increased	increased	–	–
O=c1c(O)c(-c2ccc(O)c(O)c2)oc2cc(O)cc(O)c12 [quercetin]	–	–	–	inhibition of growth	inhibition of growth
